Assay results as given in PMC10178848, “Modulating fast skeletal muscle contraction protects skeletal muscle in animal models of Duchenne muscular dystrophy” (The Journal of Clinical Investigation, 2023).
Like-named read-outs stand apart in the source and are kept apart here.

System: GRMD plasma proteins
Format: in vivo, dog
[1] = EDG-5506 treatment to GRMD baseline, Increased in GRMD

O=c1ccc(-c2cnc(OCC(F)(F)F)nc2)nn1Cc1cncc(F)c1 [EDG-5506]
Change from GRMD Baseline (fraction): Tyrosine-protein kinase Yes (YES1) [1]: -0.1382 fraction | Change from GRMD Baseline (fraction): Tyrosine-protein kinase ZAP-70 (ZAP70) [1]: -0.1508 fraction | Change from GRMD Baseline (fraction): Tyrosine-protein phosphatase non-receptor type 1 (PTPN1) [1]: -0.1492 fraction | Change from GRMD Baseline (fraction): Tyrosine-protein phosphatase non-receptor type 11 (PTPN11) [1]: -0.1298 fraction | Change from GRMD Baseline (fraction): UMP-CMP kinase (CMPK1) [1]: -0.0444 fraction | Change from GRMD Baseline (fraction): Ubiquitin carboxyl-terminal hydrolase 25 (USP25) [1]: -0.1723 fraction | Change from GRMD Baseline (fraction): Ubiquitin carboxyl-terminal hydrolase isozyme L1 (UCHL1) [1]: -0.1135 fraction | Change from GRMD Baseline (fraction): Ubiquitin-fold modifier 1 (UFM1) [1]: -0.238 fraction | Change from GRMD Baseline (fraction): Vascular cell adhesion protein 1 (VCAM1) [1]: -0.0642 fraction | Change from GRMD Baseline (fraction): Vitamin K-dependent protein C (PROC) [1]: -0.2124 fraction | Change from GRMD Baseline (fraction): Vitronectin (VTN) [1]: -0.1269 fraction | Change from GRMD Baseline (fraction): cAMP-dependent protein kinase catalytic subunit alpha (PRKACA) [1]: -0.4297 fraction | Change from GRMD Baseline (fraction): dCTP pyrophosphatase 1 (DCTPP1) [1]: -0.2045 fraction | Chitotriosidase-1 (CHIT1): Change from GRMD Baseline (fraction) [1]: -0.0569 fraction | Chorionic somatomammotropin hormone (CSH1 CSH2): Change from GRMD Baseline (fraction) [1]: -0.0697 fraction | Chromobox protein homolog 5 (CBX5): Change from GRMD Baseline (fraction) [1]: -0.0792 fraction | Coagulation Factor X (F10): Change from GRMD Baseline (fraction) [1]: 0.1015 fraction | Coagulation factor IX (F9): Change from GRMD Baseline (fraction) [1]: 0.0746 fraction | Complement component 1 Q subcomponent-binding protein, mitochondrial (C1QBP): Change from GRMD Baseline (fraction) [1]: -0.0848 fraction | Connective tissue growth factor (CTGF): Change from GRMD Baseline (fraction) [1]: -0.0649 fraction | Cyclin-dependent kinase 1:G2/mitotic-specific cyclin-B1 complex (CDC2 CCNB1): Change from GRMD Baseline (fraction) [1]: -0.037 fraction | Cyclin-dependent kinase 5:Cyclin-dependent kinase 5 activator 1 complex (CDK5 CDK5R1): Change from GRMD Baseline (fraction) [1]: -0.0717 fraction | Cytokine receptor-like factor 1:Cardiotrophin-like cytokine factor 1 Complex (CRLF1 CLCF1): Change from GRMD Baseline (fraction) [1]: 0.1068 fraction | Dual 3',5'-cyclic-AMP and -GMP phosphodiesterase 11A (PDE11A): Change from GRMD Baseline (fraction) [1]: 0.0578 fraction | Ectodysplasin-A, secreted form (EDA): Change from GRMD Baseline (fraction) [1]: -0.0132 fraction | Endothelial cell-selective adhesion molecule (ESAM): Change from GRMD Baseline (fraction) [1]: 0.0149 fraction | Endothelial monocyte-activating polypeptide 2 (AIMP1): Change from GRMD Baseline (fraction) [1]: -0.1718 fraction | Extracellular superoxide dismutase [Cu-Zn] (SOD3): Change from GRMD Baseline (fraction) [1]: -0.0256 fraction | Ficolin-2 (FCN2): Change from GRMD Baseline (fraction) [1]: -0.1165 fraction | Fms-related tyrosine kinase 3 ligand (FLT3LG): Change from GRMD Baseline (fraction) [1]: -0.0844 fraction | Galactoside 3(4)-L-fucosyltransferase (FUT3): Change from GRMD Baseline (fraction) [1]: 0.0031 fraction | Galectin-10 (CLC): Change from GRMD Baseline (fraction) [1]: 0.0351 fraction | Glial fibrillary acidic protein (GFAP): Change from GRMD Baseline (fraction) [1]: -0.0103 fraction | Glycylpeptide N-tetradecanoyltransferase 1 (NMT1): Change from GRMD Baseline (fraction) [1]: -0.1333 fraction | Group 10 secretory phospholipase A2 (PLA2G10): Change from GRMD Baseline (fraction) [1]: 0.0049 fraction | Growth hormone receptor (GHR): Change from GRMD Baseline (fraction) [1]: -0.0293 fraction | Growth-regulated alpha protein (CXCL1): Change from GRMD Baseline (fraction) [1]: -0.0678 fraction | Growth/differentiation factor 15 (GDF15): Change from GRMD Baseline (fraction) [1]: -0.0948 fraction | Hepatocyte growth factor (HGF): Change from GRMD Baseline (fraction) [1]: -0.0495 fraction | Hepcidin (HAMP): Change from GRMD Baseline (fraction) [1]: -0.0269 fraction | Immunoglobulin M (IGHM IGJ IGK@ IGL@): Change from GRMD Baseline (fraction) [1]: -0.1429 fraction | Importin subunit alpha-1 (KPNA2): Change from GRMD Baseline (fraction) [1]: -0.0896 fraction | Induced myeloid leukemia cell differentiation protein Mcl-1 (MCL1): Change from GRMD Baseline (fraction) [1]: -0.0522 fraction | Inorganic pyrophosphatase (PPA1): Change from GRMD Baseline (fraction) [1]: -0.2863 fraction | Insulin-like growth factor-binding protein 7 (IGFBP7): Change from GRMD Baseline (fraction) [1]: -0.0264 fraction | Integrin alpha-IIb: beta-3 complex (ITGA2B ITGB3): Change from GRMD Baseline (fraction) [1]: -0.0613 fraction | Interleukin-4 (IL4): Change from GRMD Baseline (fraction) [1]: -0.0475 fraction | Interleukin-6 receptor subunit beta (IL6ST): Change from GRMD Baseline (fraction) [1]: 0.0395 fraction | Interleukin-8 (CXCL8): Change from GRMD Baseline (fraction) [1]: -0.0542 fraction | Interleukin-10 receptor subunit beta (IL10RB): Change from GRMD Baseline (fraction) [1]: -0.0725 fraction | Interleukin-17 receptor C (IL17RC): Change from GRMD Baseline (fraction) [1]: -0.0346 fraction | Interleukin-18 receptor accessory protein (IL18RAP): Change from GRMD Baseline (fraction) [1]: -0.0372 fraction | Interleukin-27 (IL27 EBI3): Change from GRMD Baseline (fraction) [1]: -0.0259 fraction | Interleukin-36 beta (IL36B): Change from GRMD Baseline (fraction) [1]: -0.0479 fraction | Killer cell immunoglobulin-like receptor 3DS1 (KIR3DS1): Change from GRMD Baseline (fraction) [1]: 0.0065 fraction | Killer cell lectin-like receptor subfamily F member 1 (KLRF1): Change from GRMD Baseline (fraction) [1]: -0.0162 fraction | Lamin-B1 (LMNB1): Change from GRMD Baseline (fraction) [1]: 0.0054 fraction | Laminin (LAMA1 LAMB1 LAMC1): Change from GRMD Baseline (fraction) [1]: -0.1316 fraction | Low-density lipoprotein receptor-related protein 1B (LRP1B): Change from GRMD Baseline (fraction) [1]: -0.0892 fraction | Macrophage-stimulating protein receptor (MST1R): Change from GRMD Baseline (fraction) [1]: -0.0588 fraction | Matrilin-3 (MATN3): Change from GRMD Baseline (fraction) [1]: -0.1231 fraction | Matrilysin (MMP7): Change from GRMD Baseline (fraction) [1]: -0.0308 fraction | N-terminal pro-BNP (NPPB): Change from GRMD Baseline (fraction) [1]: -0.0602 fraction | NKG2D ligand 3 (ULBP3): Change from GRMD Baseline (fraction) [1]: -0.0822 fraction | Neural cell adhesion molecule L1-like protein (CHL1): Change from GRMD Baseline (fraction) [1]: -0.0329 fraction | Neurexophilin-1 (NXPH1): Change from GRMD Baseline (fraction) [1]: -0.0271 fraction | OX-2 membrane glycoprotein (CD200): Change from GRMD Baseline (fraction) [1]: -0.0611 fraction | Persephin (PSPN): Change from GRMD Baseline (fraction) [1]: -0.013 fraction | Phosphatidylinositol 4,5-bisphosphate 3-kinase catalytic subunit gamma isoform (PIK3CG): Change from GRMD Baseline (fraction) [1]: -0.1006 fraction | Pituitary adenylate cyclase-activating polypeptide 27 (ADCYAP1): Change from GRMD Baseline (fraction) [1]: 0.1436 fraction | Platelet factor 4 (PF4): Change from GRMD Baseline (fraction) [1]: -0.1659 fraction | Platelet glycoprotein VI (GP6): Change from GRMD Baseline (fraction) [1]: 0.0008 fraction | Prolactin (PRL): Change from GRMD Baseline (fraction) [1]: -0.0751 fraction | Prolactin receptor (PRLR): Change from GRMD Baseline (fraction) [1]: -0.064 fraction | Proteasome subunit alpha type-6 (PSMA6): Change from GRMD Baseline (fraction) [1]: -0.0773 fraction | Protein E7_HPV18 (Human-virus): Change from GRMD Baseline (fraction) [1]: -0.1102 fraction | Proto-oncogene tyrosine-protein kinase receptor Ret (RET): Change from GRMD Baseline (fraction) [1]: -0.0388 fraction | RNA-binding protein 39 (RBM39): Change from GRMD Baseline (fraction) [1]: -0.0705 fraction | Ras GTPase-activating protein 1 (RASA1): Change from GRMD Baseline (fraction) [1]: -0.1536 fraction | Ribosome maturation protein SBDS (SBDS): Change from GRMD Baseline (fraction) [1]: -0.2649 fraction | SPARC-related modular calcium-binding protein 1 (SMOC1): Change from GRMD Baseline (fraction) [1]: -0.0553 fraction | Secreted and transmembrane protein 1 (SECTM1): Change from GRMD Baseline (fraction) [1]: -0.0267 fraction | Serine/threonine-protein kinase PAK 3 (PAK3): Change from GRMD Baseline (fraction) [1]: -0.1036 fraction | Serine/threonine-protein kinase PAK 7 (PAK7): Change from GRMD Baseline (fraction) [1]: -0.037 fraction | Serine/threonine-protein kinase pim-1 (PIM1): Change from GRMD Baseline (fraction) [1]: -0.0646 fraction | Serum amyloid A-1 protein (SAA1): Change from GRMD Baseline (fraction) [1]: -0.1842 fraction | Sialic acid-binding Ig-like lectin 7 (SIGLEC7): Change from GRMD Baseline (fraction) [1]: -0.0326 fraction | Small ubiquitin-related modifier 3 (SUMO3): Change from GRMD Baseline (fraction) [1]: -0.2515 fraction | Stromelysin-1 (MMP3): Change from GRMD Baseline (fraction) [1]: 0.0153 fraction | Stromelysin-2 (MMP10): Change from GRMD Baseline (fraction) [1]: -0.0419 fraction | Synaptosomal-associated protein 25 (SNAP25): Change from GRMD Baseline (fraction) [1]: 0.0795 fraction | T-cell surface glycoprotein CD4 (CD4): Change from GRMD Baseline (fraction) [1]: -0.0326 fraction | T-lymphocyte activation antigen CD86 (CD86): Change from GRMD Baseline (fraction) [1]: -0.0169 fraction | TATA-box-binding protein (TBP): Change from GRMD Baseline (fraction) [1]: -0.0838 fraction | Thyroxine-binding globulin (SERPINA7): Change from GRMD Baseline (fraction) [1]: 0.0123 fraction | Transcription factor IIIB 90 kDa subunit (BRF1): Change from GRMD Baseline (fraction) [1]: -0.0779 fraction | Tumor necrosis factor ligand superfamily member 18 (TNFSF18): Change from GRMD Baseline (fraction) [1]: -0.0886 fraction | Tumor necrosis factor receptor superfamily member 13B (TNFRSF13B): Change from GRMD Baseline (fraction) [1]: -0.1006 fraction | Tumor necrosis factor receptor superfamily member 13C (TNFRSF13C): Change from GRMD Baseline (fraction) [1]: 0.0816 fraction | Tumor-associated calcium signal transducer 2 (TACSTD2): Change from GRMD Baseline (fraction) [1]: -0.0508 fraction | Ubiquitin-conjugating enzyme E2 G2 (UBE2G2): Change from GRMD Baseline (fraction) [1]: 0.0044 fraction | WNT1-inducible-signaling pathway protein 1 (WISP1): Change from GRMD Baseline (fraction) [1]: -0.2187 fraction | WNT1-inducible-signaling pathway protein 3 (WISP3): Change from GRMD Baseline (fraction) [1]: -0.0425 fraction | alpha-2-macroglobulin receptor-associated protein (LRPAP1): Change from GRMD Baseline (fraction) [1]: -0.1071 fraction | cGMP-dependent 3',5'-cyclic phosphodiesterase (PDE2A): Change from GRMD Baseline (fraction) [1]: -0.1496 fraction | Change from GRMD Baseline (fraction) (Endothelial cell-specific molecule 1 (ESM1), EDG-5506 treatment to GRMD baseline): -0.0233 fraction | Change from GRMD Baseline (fraction) (Endothelial cell-specific molecule 1 (ESM1), Post-Treatment to GRMD baseline): -0.0289 fraction | Change from GRMD Baseline (fraction) (Ephrin-B3 (EFNB3), EDG-5506 treatment to GRMD baseline): 0.1026 fraction | Change from GRMD Baseline (fraction) (Ephrin-B3 (EFNB3), Post-Treatment to GRMD baseline): -0.0272 fraction | Change from GRMD Baseline (fraction) (Eukaryotic translation initiation factor 4E-binding protein 2 (EIF4EBP2), EDG-5506 treatment to GRMD baseline): 0.16 fraction | Change from GRMD Baseline (fraction) (Eukaryotic translation initiation factor 4E-binding protein 2 (EIF4EBP2), Post-Treatment to GRMD baseline): 0.0377 fraction | common DMD plasma proteomic signature (GRMD plasma, Somascan): significantly reversed this common DMD signature | Change from GRMD Baseline (fraction) (Glutathione S-transferase A3 (GSTA3), EDG-5506 treatment to GRMD baseline): 0.0601 fraction | Change from GRMD Baseline (fraction) (Glutathione S-transferase A3 (GSTA3), Post-Treatment to GRMD baseline): 1.476 fraction | Change from GRMD Baseline (fraction) (Heparan-sulfate 6-O-sulfotransferase 1 (HS6ST1), EDG-5506 treatment to GRMD baseline): 0.0701 fraction | Change from GRMD Baseline (fraction) (Heparan-sulfate 6-O-sulfotransferase 1 (HS6ST1), Post-Treatment to GRMD baseline): -0.1313 fraction | Change from GRMD Baseline (fraction) (Histone H3.1 (HIST1H3A), EDG-5506 treatment to GRMD baseline): 0.1658 fraction | Change from GRMD Baseline (fraction) (Histone H3.1 (HIST1H3A), Post-Treatment to GRMD baseline): 0.0723 fraction | Change from GRMD Baseline (fraction) (Human Chorionic Gonadotropin (CGA CGB), EDG-5506 treatment to GRMD baseline): 0.1653 fraction
